Peptide text beside a SMILES is read from it.

For one assay, the system named is pMHC tetramer positive T-cell lines. The note with it: 18 h.
Experimental: To examine the ligand sensitivity of the generated peptide specific cell lines, INF-γ production was measured after stimulation with T2 cells that were loaded with a range of peptide concentrations (Figure 4). In this assay (performed for 8 representative cell lines), peptide concentrations required for T-cell recognition were compared to those required for a previously identified T-cell clone that is specific for the HMHA-1H epitope.
HLA A2^+ T2 cells were pulsed with specific MiHA peptide. Peptide concentrations were titrated in 10-fold dilution steps starting from 10ug/ml. T-cell reactivity was analyzed by cytokine secretion in a standard IFN γ ELISA. Data are presented as cytokine concentration. Shown are eight representative generated T-cell lines and a high affinity control clone specific for HMHA-1H (open square).
MiHA specific T-cell lines (1×10^4) were stimulated with HLA-A2^+ T2 cells, EBV-LCLs or T-cell blasts (2,5×10^4) in 96 well plates for 18 h at 37°C and 5% CO2. Peptide pulsing was performed by incubating stimulator cells for 1 h with synthetic peptides (1 µg/ml) in IMDM containing 2% FCS and cells were washed twice before use. Cytokine release was measured by IFN γ ELISA (Sanquin) according to the manufacturer's instructions.
In the case of `CC[C@H](C)[C@H](NC(=O)[C@@H](N)CO)C(=O)N[C@@H](CCC(N)=O)C(=O)N[C@@H](CC(N)=O)C(=O)N[C@@H](Cc1ccc(O)cc1)C(=O)N[C@@H](Cc1c[nH]cn1)C(=O)N1CCC[C@H]1C(=O)N[C@@H](Cc1ccccc1)C(=O)N[C@@H](C)C(=O)O` [P37 DOCK2SIQ] (H-SIQNYHPFA-OH), the IC50 was ~500 nM.

With `CC(C)C[C@H](NC(=O)[C@H](CC(C)C)NC(=O)[C@H](CC(=O)O)NC(=O)[C@H](CC(=O)O)NC(=O)[C@H](Cc1c[nH]cn1)NC(=O)[C@H](CC(C)C)NC(=O)[C@@H](N)C(C)C)C(=O)N[C@@H](CCC(=O)O)C(=O)N[C@@H](C)C(=O)O` [P46 HMHA1VLH] (H-VLHDDLLEA-OH), the IC50 is ~0.05 nM.

In the case of `CC(C)C[C@H](NC(=O)[C@@H]1CCCN1C(=O)[C@H](CC(C)C)NC(=O)[C@H](C)NC(=O)[C@H](C)NC(=O)[C@H](Cc1c[nH]c2ccccc12)NC(=O)[C@H](CC(C)C)NC(=O)[C@@H]1CCCN1C(=O)[C@H](CC(C)C)NC(=O)[C@H](CC(C)C)NC(=O)[C@@H](N)CCCNC(=N)N)C(=O)O` [P104 ZFP36L2RLL] (H-RLLPLWAALPL-OH), the IC50 is ~500 nM.

For the molecule `CC[C@H](C)[C@H](N)C(=O)N[C@@H](CCSC)C(=O)N[C@@H](C)C(=O)N[C@H](C(=O)N[C@@H](CCC(=O)O)C(=O)N[C@@H](CC(C)C)C(=O)N[C@@H](C)C(=O)N[C@@H](CCC(=O)O)C(=O)N[C@@H](CC(C)C)C(=O)O)[C@@H](C)CC` [P218 MAP4K1IMA] (H-IMAIELAEL-OH), the IC50 was ~0.05 nM.

In the case of `CSCC[C@H](NC(=O)[C@@H](N)CO)C(=O)N[C@@H](CS)C(=O)N[C@@H](CCCNC(=N)N)C(=O)N[C@@H](Cc1ccccc1)C(=O)N[C@@H](CO)C(=O)N1CCC[C@H]1C(=O)N[C@@H](CC(C)C)C(=O)N[C@H](C(=O)N[C@@H](CC(C)C)C(=O)O)[C@@H](C)O` [P309 HSPA6SMC] (H-SMCRFSPLTL-OH), the IC50 was ~5 nM.

Staying with this assay, now noted: read-out: IC50, peptide concentration required for T-cell recognition (IFN γ production); HLA-A2+ T2 cells pulsed with peptide, 10-fold dilution steps from 10ug/ml; 18 h; IFN γ ELISA; value given for the group of cell lines.
In the case of `CC[C@H](C)[C@H](NC(=O)[C@H](CC(=O)O)NC(=O)[C@H](CCSC)NC(=O)CNC(=O)[C@H](Cc1ccccc1)NC(=O)[C@H](CC(C)C)NC(=O)[C@H](CCC(=O)O)NC(=O)[C@H](Cc1c[nH]cn1)NC(=O)[C@H](CC(C)C)NC(=O)[C@@H](NC(=O)[C@@H](N)CCCCN)C(C)C)C(=O)O` [P91 FLT3KVL] (H-KVLHELFGMDI-OH), the IC50 was ~5 nM.

Take `CSCC[C@H](NC(=O)[C@@H](N)CCCCN)C(=O)N[C@@H](CC(N)=O)C(=O)N[C@H](C(=O)N[C@@H](Cc1ccccc1)C(=O)N[C@@H](CC(=O)O)C(=O)N[C@H](C(=O)N[C@@H](CC(N)=O)C(=O)N[C@@H](CC(C)C)C(=O)O)[C@@H](C)O)C(C)C` [P203 ATP2A3KMN] (H-KMNVFDTNL-OH): the IC50 is ~500 nM.

Source of the values: publication PMC3151248, “High-Throughput Identification of Potential Minor Histocompatibility Antigens by MHC Tetramer-Based Screening: Feasibility and Limitations” (PLoS ONE, 2011).
